# Values of other authors, collected in publication PMC10814857, “Functional Classification and Interaction Selectivity Landscape of the Human SH3 Domain Superfamily” (Cells, 2024).
# Where two headings read alike, the source gives them in different places.
# Columns and labels:
# PLCG1 SH3 domain = settings: PLCG1, SPR, Table S4; ref [75]; cited from earlier work
# Protocol: (§1) page 6: […] […] […] PAK2 […] PXXXPR PXXXPR 1.05 ITC [34] TRSVI ITSN1-2 Synthetic […] Exceptional [W/F][R/W]xSx[A/ 53 ITC [29] peptide G][F/Y][L/V]xGP[ W/L] NCK1-2 N-WASP GP[…] … 147 HSQC [64] VA[…] 199 PLCG1 SOS1 AAPV[…] … 0.20mM SPR [75] AADS[…] 0.40mM AAES[…] 0.70mM AAIA[…] 0.28mM BAIAP2L1 EspFUR45 IPP[…] … 0.5 nM ITC [76] (IRTKS) 9 SORBS2- Synthetic […] Exceptional XRXGXAYLXYVX 38 ITC [29] 1 peptide Synthetic RL[…](L/P) ...
# SRC SH3 domain = molecular target: SRC SH3 domain; design: method as in 3 sources, one per row (each row's own in cited_ref): ref [23] (a number printed in a supplementary file, which may have a reference list of its own: not looked up in the article's list) ||| ref [62] (a number printed in a supplementary file, which may have a reference list of its own: not looked up in the article's list) ||| ref [17] (a number printed in a supplementary file, which may have a reference list of its own: not looked up in the article's list); settings: FL, cited from earlier work
# NCK1-1 SH3 domain = settings: NCK1-1, HSQC, Table S4; ref [64]; cited from earlier work
# GRAP2-2 SH3 domain = settings: GRAP2-2, ITC, Table S4, cited from earlier work
# Protocol: as §1
# ABL1 SH3 domain = molecular target: ABL1 SH3 domain; design: method as in ref [67] (a number printed in a supplementary file, which may have a reference list of its own: not looked up in the article's list); settings: ABL1, FL, Table S4; ref [67]; cited from earlier work
# GRB2-1 SH3 domain = settings: Table S4, cited from earlier work
# Protocol: as §1
# CRK-1 SH3 domain [1] = molecular target: CRK-1 SH3 domain; design: method as in ref [71] (a number printed in a supplementary file, which may have a reference list of its own: not looked up in the article's list); settings: CRK-1, SPR, Table S4; ref [71]; cited from earlier work
# STAC1 SH3 domain = settings: STAC1, ITC, Table S4; ref [59]; cited from earlier work
# Protocol: as §1
# STAC2 SH3 domain = settings: STAC2, ITC, Table S4; ref [59]; cited from earlier work
# Protocol: as §1
# [2] = molecular target: bPIX (ARHGEF7) SH3 domain; design: method as in 3 sources, one per row (each row's own in cited_ref): ref [33] (a number printed in a supplementary file, which may have a reference list of its own: not looked up in the article's list) ||| ref [60] (a number printed in a supplementary file, which may have a reference list of its own: not looked up in the article's list) ||| ref [34] (a number printed in a supplementary file, which may have a reference list of its own: not looked up in the article's list); settings: ITC, cited from earlier work
# NCK1-2 SH3 domain = settings: NCK1-2, HSQC, Table S4; ref [64]; cited from earlier work
# Protocol: (§2) page 6: […][…] […] PAK2 […] PXXXPR PXXXPR 1.05 ITC [34] TRSVI ITSN1-2 Synthetic […] Exceptional [W/F][R/W]xSx[A/ 53 ITC [29] peptide G][F/Y][L/V]xGP[ W/L] NCK1-2 N-WASP GP[…] … 147 HSQC [64] VA[…] 199 PLCG1 SOS1 AAPV[…] … 0.20mM SPR [75] AADS[…] 0.40mM AAES[…] 0.70mM AAIA[…] 0.28mM BAIAP2L1 EspFUR45 IPP[…] … 0.5 nM ITC [76] (IRTKS) 9 SORBS2- Synthetic […] Exceptional XRXGXAYLXYVX 38 ITC [29] 1 peptide Synthetic RL[…](L/P) ...
# p85A SH3 domain = molecular target: p85A SH3 domain; design: method as in ref [3] (a number printed in a supplementary file, which may have a reference list of its own: not looked up in the article's list); settings: SPR, Table S4, ref [3]; cited from earlier work
# GRB2-2 SH3 domain = settings: Table S4, cited from earlier work
# Protocol: as §1
# FYN SH3 domain = molecular target: FYN SH3 domain; design: method as in ref [73] (a number printed in a supplementary file, which may have a reference list of its own: not looked up in the article's list); settings: HSQC, Table S4, ref [73], cited from earlier work
# SORBS2-1 SH3 domain = settings: SORBS2-1, ITC, Table S4; ref [29]; cited from earlier work
# Protocol: as §1
# NCK1-3 SH3 domain = settings: NCK1-3, HSQC, Table S4; ref [64]; cited from earlier work
# Protocol: as §2
# CRK-1 SH3 domain [3] = molecular target: CRK-1 SH3 domain; design: method as in 3 sources, one per row (each row's own in cited_ref): ref [15] (a number printed in a supplementary file, which may have a reference list of its own: not looked up in the article's list) ||| ref [69] (a number printed in a supplementary file, which may have a reference list of its own: not looked up in the article's list) ||| ref [17] (a number printed in a supplementary file, which may have a reference list of its own: not looked up in the article's list); settings: CRK-1, FL, Table S4, cited from earlier work
# EPS8L1 SH3 domain = molecular target: EPS8L1 SH3 domain; design: method as in ref [7] (a number printed in a supplementary file, which may have a reference list of its own: not looked up in the article's list); settings: EPS8L1, ITC, Table S4; ref [7]; cited from earlier work
# [4] = molecular target: NCF1-2 (p47phox) SH3 domain; design: method as in ref [14] (a number printed in a supplementary file, which may have a reference list of its own: not looked up in the article's list); settings: FL, Table S4, ref [14]; cited from earlier work
sequence,measurement,setting,value
AADSPPAIPPRQPT [published SOS1 peptide],Kd,PLCG1 SH3 domain,400 nM
AAESPPLLPPREPV [published SOS1 peptide],Kd,PLCG1 SH3 domain,700 nM
AAIAGPPVPPRQST [published SOS1 peptide],Kd,PLCG1 SH3 domain,280 nM
AAPVPPPVPPRRRP [published SOS1 peptide],Kd,PLCG1 SH3 domain,200 nM
APPLPPRNRPRL [published peptide APP12],Kd,"SRC SH3 domain; Table S4, ref [23]",1.2 µM
APPPPPPSRGG [published N-WASP peptide],Kd,NCK1-1 SH3 domain,> 1 mM
APSIDRSTKPP [published SLP-76 peptide],Kd,GRAP2-2 SH3 domain; ref [55],675 nM
APSYSPPPPP,Kd,ABL1 SH3 domain,1.5 µM
APTYPPPAPP,Kd,ABL1 SH3 domain,5 µM
APTYSPPPPP,Kd,ABL1 SH3 domain,0.4 µM
DSPPAIPPRQPT [published SOS1 peptide],Kd,"GRB2-1 SH3 domain; GRB2-1, ITC, ref [79]",55 µM
DVADVPPPLPLKGSVADYGNLMENQDLLGSPTPPPPPPHQRHLPPPLPSKT [published DOCK180 peptide],Kd,CRK-1 SH3 domain [1],350 nM
EDEPEIPLSPRPRP [published CaV1.1 peptide],Kd,STAC1 SH3 domain,3920 nM
same,Kd,STAC2 SH3 domain,9.31 µM
EETAPPVIAPRPDHTKSIYTRSVI [published PAK2 peptide],Kd,"[2]; Table S4, ref [34]",1050 nM
ESPPLLPPREPV [published SOS1 peptide],Kd,"GRB2-1 SH3 domain; GRB2-1, ITC, ref [79]",117 µM
GPPPPPARGRGA [published N-WASP peptide],Kd,NCK1-1 SH3 domain,> 1 mM
same,Kd,NCK1-2 SH3 domain,147 µM
HSKRPLPPLPSL [published peptide PD1R],Kd,p85A SH3 domain,40 µM
HSKYPLPPLPSL [published peptide PD1],Kd,p85A SH3 domain,120 µM
IAGPPVPPRQST [published SOS1 peptide],Kd,"GRB2-1 SH3 domain; GRB2-1, ITC, ref [79]",82 µM
IQPPPVNRNLKPDRK [published Gab2b peptide],Kd,"GRB2-2 SH3 domain; GRB2-2, ITC, ref [48]",17.4 µM
KPSRPPRPSRPPPPTPRRPAS [published Itch peptide],Kd,"[2]; Table S4, ref [33]",1590 nM
KRISPPTPKPRPPR [published PI3K-p85a peptide],Kd,FYN SH3 domain; unit mM in the cell,0.003 mM
LRRQAPPPPPPS [published N-WASP peptide],Kd,NCK1-1 SH3 domain,> 1 mM
LRTGEAYLRYVD [published synthetic peptide (SORBS2-1 ligand)],Kd,SORBS2-1 SH3 domain,38 µM
NENEDKSPYPNPETTGEEDEEEPEMPVGPRPRPLSELHLKEKAVPMPE [published CaV1.2 peptide],Kd,STAC2 SH3 domain,19.3 µM
NRMYPPPPPALP [published N-WASP peptide],Kd,NCK1-3 SH3 domain,> 1000 nM
NVNEVKDPYPSADFPGDDEEDEPEIPLSPRPRPLAELQLKEKAVPIPE [published CaV1.1 peptide],Kd,STAC1 SH3 domain,780 nM
same,Kd,STAC2 SH3 domain,1.85 µM
PAPSIDRSTKPPL [published SLP-76 peptide],Kd,GRAP2-2 SH3 domain; ref [55],181 nM
same,Kd,"GRB2-2 SH3 domain; GRB2-2, ITC, ref [55]",9.7 µM
PGPPPPPGLPSD [published N-WASP peptide],Kd,NCK1-3 SH3 domain,> 1000 nM
PKLPPKTYKREH [published SOS1 peptide],Kd,"GRB2-2 SH3 domain; GRB2-2, NMR, ref [47]",156 µM
PKPLPRFPKK [published SOS1 peptide],Kd,"GRB2-1 SH3 domain; GRB2-1, NMR, ref [47]",250 µM
PPPALPPKKR [published C3G peptide],Kd,CRK-1 SH3 domain [3]; ref [15],1.9 µM
same,Kd,CRK-1 SH3 domain [3]; ref [69],1.89 µM
same,Kd,"GRB2-1 SH3 domain; GRB2-1, FL, ref [15]",142 µM
PPPVPPRRRR [published SOS1 peptide],Kd,CRK-1 SH3 domain [3]; ref [15],5.2 µM
same,Kd,"GRB2-1 SH3 domain; GRB2-1, FL, ref [15]",3.5 µM
PPRPLPVAPGSSKA [published PI3K-p85a peptide],Kd,FYN SH3 domain,0.05 mM
PPRPTPVAPGSSKA [published PI3K-p85a peptide],Kd,FYN SH3 domain,0.3 mM
PPVPNPDYEPIR [published CD3ε peptide],Kd,EPS8L1 SH3 domain,24 µM
PSIDRSTKP [published SLP-76 peptide],Kd,GRAP2-2 SH3 domain; ref [57],30000 nM
PSPHGTRRHLPSPP [published SOS1 peptide],Kd,"GRB2-1 SH3 domain; GRB2-1, NMR, ref [47]",208 µM
PVPPPVPPRRRP [published SOS1 peptide],Kd,"GRB2-1 SH3 domain; GRB2-1, ITC, ref [78]",38.6 µM
same,Kd,"GRB2-1 SH3 domain; GRB2-1, NMR, ref [47]",37 µM
same,Kd,"GRB2-2 SH3 domain; GRB2-2, ITC, ref [78]",117 µM
same,Kd,"GRB2-2 SH3 domain; GRB2-2, NMR, ref [47]",142 µM
QPPSNPPPRPPAEAR [published p22phox peptide],Kd,[4],8.67 µM
QPPSNPPPRPPAEARKKPSE [published p22phox peptide],Kd,[4],0.64 µM
RALPPLPRY [published synthetic peptide (SRC ligand)],Kd,"SRC SH3 domain; Table S4, ref [62]",7.8 µM
RAPTMPPPLPP [published 3BP-1 peptide],Kd,ABL1 SH3 domain,34 µM
RLPLRPPLPHTS [published synthetic peptide (SORBS2-1 ligand)],Kd,SORBS2-1 SH3 domain,121 µM
SAPSGPPPPPPSVL [published N-WASP peptide],Kd,NCK1-1 SH3 domain,> 1 mM
same,Kd,NCK1-3 SH3 domain,> 1000 nM
SLPGPLTPVAEGQEIGMNTETSGTSAREKELSPPPGLPSKIGSISRQSSL [published ST12 peptide],Kd,CRK-1 SH3 domain [1],910 nM
TAAPPPPPPSRP [published N-WASP peptide],Kd,NCK1-1 SH3 domain,> 1 mM
VAPPPPPPPPPPPG [published N-WASP peptide],Kd,NCK1-3 SH3 domain,> 1000 nM
VAVPPPPPNRMY [published N-WASP peptide],Kd,NCK1-2 SH3 domain,199 µM
same,Kd,NCK1-3 SH3 domain,1000 nM
VPPPVPPRRR [published SOS1 peptide],Kd,"GRB2-1 SH3 domain; GRB2-1, FL, ref [77]",5.6 µM
VSLARRPLPPLP [published peptide VSL12],Kd,"SRC SH3 domain; Table S4, ref [23]",0.45 µM
YEVPPPVPPRRR [published SOS1 peptide],Kd,CRK-1 SH3 domain [3]; ref [17],6 µM
same,Kd,"SRC SH3 domain; Table S4, ref [17]",25 µM
same,Kd,"GRB2-1 SH3 domain; GRB2-1, FL, ref [17]",5 µM
